Laboratory results published in ChEMBL document CHEMBL1201862, “PubChem BioAssay data set” (2004).
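Where inhibition never reached the appropriate level, the endpoint shown equals the highest concentration tested. Otherwise, values were interpolated linearly from a five-concentration, 48-hour dose response in 96-well plates. Abbreviation: GI50, concentration required for 50% inhibition of growth.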 Activity calls are given as the source filed them. No stated cut-off is given here; in the data, active = GI50 up to about 1.1 µM and inactive = higher.

Key:
Test in all cases: inhibition of tumour cell growth, NCI panel, 48 h
A549 = system: A549
ACHN = system: ACHN
COLO 205 = system: COLO 205
EKVX = system: EKVX
HOP-92 = system: HOP-92
Hs-578T = system: Hs-578T
K562 = system: K562
MCF7 = system: MCF7
MDA-MB-231 = system: MDA-MB-231
NCI-H226 = system: NCI-H226
NCI/ADR-RES = system: NCI/ADR-RES
OVCAR-5 = system: OVCAR-5
PC-3 = system: PC-3
SF-539 = system: SF-539
SK-MEL-28 = system: SK-MEL-28
SR = system: SR
SW-620 = system: SW-620
TK-10 = system: TK-10
UO-31 = system: UO-31
MDA-N = system: MDA-N

Measured: GI50

C=CCNC(=O)NC1=CSC2=NC(=O)C3(NN12)c1ccccc1-c1ccccc13
inactive: A549 > 10 µM | ACHN > 10 µM | COLO 205 > 10 µM | EKVX > 10 µM | HOP-92 > 10 µM | Hs-578T 4.16 µM | K562 > 10 µM | MCF7 > 10 µM | MDA-MB-231 > 10 µM | NCI-H226 > 10 µM | NCI/ADR-RES > 10 µM | OVCAR-5 > 10 µM | PC-3 > 10 µM | SF-539 > 10 µM | SK-MEL-28 > 10 µM | SR > 10 µM | SW-620 > 10 µM | TK-10 > 10 µM | UO-31 8.24 µM

CN(CCO)c1nc(=O)c2c(n1C1OC(CO)C(O)C(O)C1O)CCCC2 (configuration not stated)
inactive: A549 > 100 µM | ACHN > 100 µM | COLO 205 > 100 µM | EKVX > 100 µM | HOP-92 > 100 µM | K562 > 100 µM | NCI-H226 > 100 µM | OVCAR-5 > 100 µM | SF-539 > 100 µM | SK-MEL-28 > 100 µM | SR > 100 µM | SW-620 > 100 µM | TK-10 > 100 µM | UO-31 > 100 µM

CC1=NN(c2nc(N)nc(CF)n2)C(C)(C)C1
inactive: ACHN > 100 µM | COLO 205 > 100 µM | EKVX > 100 µM | HOP-92 > 100 µM | Hs-578T > 100 µM | K562 49.3 µM | MCF7 > 100 µM | MDA-MB-231 > 100 µM | NCI-H226 > 100 µM | NCI/ADR-RES > 100 µM | PC-3 > 100 µM | SF-539 > 100 µM | SK-MEL-28 > 100 µM | SR > 100 µM | SW-620 > 100 µM | TK-10 > 100 µM | UO-31 > 100 µM

COC1C=COC2(C)Oc3c(C)c(O)c4c(O)c(c(C5SCCS5)c(O)c4c3C2=O)NC(=O)C(C)=C/C=C\C(C)C2OC(C)(C)OC(C2C)C(C)C(OC(C)=O)C1C (configuration not stated)
inactive: A549 3.66 µM | ACHN 3.15 µM | COLO 205 3.38 µM | HOP-92 5.55 µM | Hs-578T 15.8 µM | K562 4.09 µM | MCF7 2.92 µM | MDA-MB-231 13.6 µM | NCI-H226 6.71 µM | NCI/ADR-RES 11.6 µM | OVCAR-5 24.3 µM | PC-3 5.31 µM | SF-539 12.9 µM | SK-MEL-28 23.5 µM | SW-620 7 µM | TK-10 6.41 µM | UO-31 7.41 µM

CCOc1ccc(/C=C2/C(=O)N/C(=N\C(C)=O)N2C)cc1
inactive: A549 > 100 µM | ACHN > 100 µM | COLO 205 > 100 µM | EKVX 54.2 µM | HOP-92 > 100 µM | MCF7 62.8 µM | MDA-MB-231 > 100 µM | MDA-N > 100 µM | NCI-H226 > 100 µM | NCI/ADR-RES > 100 µM | OVCAR-5 > 100 µM | SF-539 > 100 µM | SK-MEL-28 > 100 µM | SW-620 > 100 µM | TK-10 > 100 µM | UO-31 > 100 µM

CS(=O)(=O)ON1C(=O)c2ccc(N)cc2C1=O
inactive: A549 > 100 µM | ACHN > 100 µM | COLO 205 49.5 µM | EKVX > 100 µM | HOP-92 > 100 µM | K562 42.8 µM | NCI-H226 > 100 µM | OVCAR-5 > 100 µM | SF-539 > 72.9 µM | SK-MEL-28 > 49.4 µM | SR 30 µM | SW-620 52.1 µM | TK-10 > 100 µM | UO-31 > 100 µM
